From patent US12558353B2 (CELLTAXIS, LLC, priority 2018, dated 2026)
Entries after “also recorded” stand apart in the source; their conditions may differ.

Legend:
[1] = tested on: adult patients with cystic fibrosis; experiment: EMPIRE-CF: absolute change from baseline in FEV1pp (spirometry); assay type: in vivo, human; conditions: 48 weeks of therapy
Protocol: The primary endpoints were absolute change from baseline in FEV1pp and safety outcomes. Secondary endpoints included rate of pulmonary exacerbations and time to first pulmonary exacerbation, and the effects on biomarkers of lung and systemic inflammation. Analyses are described in section entitled “Analysis.”
Spirometry data were recorded at screening and baseline; all other spirometric measurements at subsequent visits are ideally recorded within ±1 h of the baseline visit measurement. All tests met American Thoracic Society/European Respiratory Society criteria for quality (acceptability, reproducibility, and end of test criteria) [Miller et al., 2005]. To ensure consistency of measurement, spirometry measurements were ideally performed by the same researcher and the patient coached to use maximum effort at every attempt. Patients were able to take all of their concomitant medications according to their regular schedule; however, they were to refrain from using short-acting bronchodilators within 4 h of the scheduled spirometry time, and long-acting bronchodilators within 12-24 h of the scheduled spirometry time.
The primary analysis was based upon an analysis of variance (ANOVA) in which the average of the Week 48 change from baseline in FEV1pp for the two acebilustat doses was compared to that in the placebo group. […]

[2] = tested on: LTB4 production; conditions: cited from earlier work
[3] = tested on: sputum neutrophils, sputum elastase, C-reactive protein, sputum LTB4; conditions: cited from earlier work
[4] = once-daily, adult patients with CF

## O=C(O)c1ccc(CN2C[C@@H]3C[C@H]2CN3Cc2ccc(Oc3ccc(-c4ncco4)cc3)cc2)cc1 [acebilustat, 4-{[(1S,4S)-5-({4-[4-oxazol-2-yl-phenoxy]phenyl}methyl)-2,5-diazabicyclo[2.2.1]heptan-2-yl]methyl}benzoic acid]
[1]
  absolute change in FEV1pp from baseline at Week 48 versus placebo (primary endpoint): not different from placebo; also recorded: did not separate from placebo; also recorded: No difference between acebilustat and placebo
[2]; 50 mg dose
  peak reduction in LTB4 production: ~75%
[2]; 100 mg dose, near-maximum
  reduction of serum LTB4 production: 86%
[3]; acebilustat treated groups
  C-reactive protein: Numerical reductions
[3]; [4]
  reduction of sputum elastase levels: up to 58%
  reduction of sputum neutrophil levels: up to 65%
[3]; patients with CF
  sputum LTB4 levels, acebilustat- vs placebo-treated patients: decreased significantly
